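Method: 48-hour compound exposure of cells in 96-well plates, five concentrations, linear interpolation of endpoints. The concentration for 50% growth inhibition is given as GI50. The concentration for full growth arrest is given as TGI.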
Columns and labels:
Assay in all cases: inhibition of tumour cell growth, NCI panel, 48 h
[1] = system: LOX IMVI melanoma
[2] = system: NCI-H522 lung
[3] = system: NCI-H460 lung
[4] = system: RPMI-8226 leukemia
[5] = system: SN12C renal
[6] = system: HOP-92 NSCLC
[7] = system: CCRF-CEM leukemia
[8] = system: HCC-2998 colon
[9] = system: MCF7 breast
[10] = system: DU-145 prostate

Row | SMILES | TGI [1] [µM] | TGI [2] [µM] | TGI [3] [µM] | TGI [4] [µM] | TGI [5] [µM] | TGI [6] [µM] | TGI [7] [µM] | TGI [8] [µM] | GI50 [9] [µM] | TGI [9] [µM] | GI50 [1] [µM] | GI50 [10] [µM] | TGI [10] [µM] | GI50 [2] [µM] | GI50 [3] [µM] | GI50 [4] [µM] | GI50 [5] [µM] | GI50 [8] [µM] | GI50 [7] [µM] | GI50 [6] [µM]
1 | C=CCNC(=O)N(CCCCC(NC(C)=O)C(=O)NCc1ccccc1)Cc1ccccc1 (stereo unspecified) | > 100 | > 100 | > 100 | > 100 | > 100 | > 100 | > 100 |  |  |  |  |  |  |  |  |  |  |  |  | 
2 | O=C(O)C1=C(O)C(C(=O)O)C23CCCCCCCCCCC12C(C(=O)O)C(O)=C3C(=O)O (stereo unspecified) |  | > 100 | > 100 | > 100 | > 100 | > 100 | > 100 | > 100 |  |  |  |  |  |  |  |  |  |  |  | 
3 | COC(=O)CC1C[C@H](C#N)N(C(=O)c2ccccc2)C[C@@H]1CC[N+](=O)[O-] (stereo partly specified) | > 100 |  | > 100 | > 100 | > 100 | > 100 | > 100 | > 100 |  |  |  |  |  |  |  |  |  |  |  | 
4 | COc1ncnc2c(-c3ccccc3)cn(COCc3ccccc3)c12 | 14.7 | 6.17 | 23 | 13 | 30 |  | > 100 | > 100 | 2.53 | 9.32 | 3.27 | 10.4 | > 100 | 2.09 | 3.54 | 2.03 | 3.12 | 4.01 | 3.58 | 
5 | CCN(CC)c1c(C(=O)/C=C/c2ccc(Cl)cc2)c(-c2ccccc2)nn(C)c1=O | 3.48 | 2.98 | 3.67 | 5.2 | 4.59 | 4.33 | 8.82 | 3.24 |  |  |  |  |  |  |  |  |  |  |  | 
6 | O=[N+]([O-])c1ccc(C[P+](c2ccccc2)(c2ccccc2)c2ccccc2)cc1 | > 100 | > 100 | > 100 | > 100 | > 100 |  | > 100 | > 100 |  |  |  |  |  |  |  |  |  |  |  | 
7 | CCOC(=O)/C(C=Nc1ccc(-c2nc3ccccc3[nH]2)cc1)=C(/C)O | 16.5 | 26.4 | > 50 | 40.1 | > 50 | > 50 |  |  | 11.7 | > 50 | 9.13 | 10.1 | 33.3 | 10.7 | 12.1 | 8.12 | 14.5 |  |  | 19.4
8 | CC1(C)C2CCC13C(=O)C1OC3(C2)C2C(=O)c3cc4ccccc4cc3C(=O)C12 (stereo unspecified) |  | > 100 | > 100 |  | > 100 | 27.5 | 25.7 | > 100 | 6.17 | > 100 |  |  |  | 23.1 | 5.48 |  | 19.3 | 8.53 | 3.42 | 4.19
9 | Cc1cccc(/C=C/c2c(C(=O)/C=C/c3ccccc3)c(C)nc3ccccc23)c1 | 2.93 |  | 2.94 |  | 3.5 | 4 | > 100 | 3.49 | 0.565 | 4.22 | 1.58 |  |  |  | 1.3 |  | 1.68 | 1.73 | 1.33 | 1.48
10 | CCOC(=O)C12CCCC1(O)N(NC(=O)OC(C)(C)C)C(C)=C2C(=O)OC (stereo unspecified) | > 100 | > 100 | > 100 | > 100 | > 100 | > 100 | > 100 | > 100 |  |  |  |  |  |  |  |  |  |  |  | 
11 | COC(=O)NC(=O)c1cn(C2OC(CO)C(O)C2O)c(=O)[nH]c1=O (stereo unspecified) | > 100 | > 100 | > 100 | > 100 | > 100 | > 100 |  | > 100 |  |  |  |  |  |  |  |  |  |  |  | 
12 | CC(C)Cn1cnc2c(SCc3ccc(Cl)cc3Cl)nc(N)nc21 | 38.3 | 37 | 35.4 | 74.8 | > 100 | 69.9 |  | 37.4 |  | 47.8 |  |  | > 100 |  |  |  |  |  |  | 
13 | CCOC(=O)c1nn2c(nc1=O)sc1ccc3ccccc3c12 | > 100 |  | > 100 | > 100 | > 100 | > 100 | > 100 | > 100 |  |  |  |  |  |  |  |  |  |  |  | 
14 | NC(=O)C(=O)N/N=C1\C(=O)N(c2ccc(Cl)cc2Cl)C(=O)C1C(=O)Nc1ccc(Cl)cc1Cl (stereo unspecified) | > 100 | > 100 | > 100 | > 100 | > 100 | > 100 | > 100 | > 100 |  |  |  |  |  |  |  |  |  |  |  | 
15 | O/N=C1/C(=C/c2ccc3c(c2)OCO3)CCCC1C(NO)c1ccc2c(c1)OCO2 (stereo unspecified) |  | 40.2 | 71.1 | 40.9 | 40.9 |  | 53 | 55.5 |  |  |  |  |  |  |  |  |  |  |  | 
16 | CN1CCC2(CC1)ONC1=NCCN12 |  | > 100 | > 100 |  | 40.2 |  | 42.3 | 43.8 | 23 | 87.1 |  | 51.3 | > 100 | 29.3 | 37.2 |  | 15.8 | 15.8 | 13.4 | 
17 | O=C(Nc1ccc([As](=O)(O)O)cc1)Nc1cccc(Cl)c1Cl | > 100 | > 100 | > 100 | > 100 | > 100 | > 100 |  | > 100 |  | > 100 |  |  | > 100 |  |  |  |  |  |  | 
18 | O=C(O)CCN(CCCCN(CCC(=O)O)CCC(=O)O)CCC(=O)O | > 100 | > 100 | > 100 | > 100 | > 100 | > 100 | > 100 | > 100 |  |  |  |  |  |  |  |  |  |  |  | 
19 | CCCCCCCCCCCc1nnc(N)o1 | > 100 | > 100 | > 100 | > 100 | > 100 | > 100 |  | > 100 |  |  |  |  |  |  |  |  |  |  |  | 
20 | COc1ccc(/C=N/N=C(\N)NO)cc1O | > 100 |  | > 100 | > 100 | > 100 | 64.2 | > 100 | > 100 |  |  |  |  |  |  |  |  |  |  |  | 
21 | COc1cc(Br)c(C=Nc2cccc3cc(OC)c(OC)cc23)cc1OC | > 100 | > 100 | > 100 | > 100 | > 100 | 98.1 | > 100 | > 100 |  |  |  |  |  |  |  |  |  |  |  | 
22 | CCOc1cccc(/C=N/N=C2\C(=O)Nc3c(Cl)cc(Cl)cc32)c1O | > 100 |  | > 100 |  | > 100 | > 100 | > 100 | > 100 |  | > 100 |  |  |  |  |  |  |  |  |  | 
23 | CC1=C(C(=O)Nc2cc(=O)n(C)c(=O)n2C)C(c2ccco2)C(C(=O)Nc2cc(=O)n(C)c(=O)n2C)=C(C)N1 | > 100 | > 100 | > 100 | > 100 | > 100 | > 100 | > 100 | > 100 |  |  |  |  |  |  |  |  |  |  |  | 
